*1 amine or outer side, *2 acyl side, *3 side chain or, on linkers, in order; H or OH if unused. Where a SMILES comes first, the peptide text is derived from it. Side-chain parts run from the residue outwards. [ ]: non-standard residue; d: D form. The star is where a group is joined. C20 diacid = O=C(O)CCCCCCCCCCCCCCCCCCC(=O)*; γGlu = O=C(O)[C@H](CCC(=O)[*:2])N[*:1]; εLys = N[C@@H](CCCCN[*:1])C(=O)[*:2]; Aib = CC(C)(N)C(=O)O

Experiment in all cases: Receptor activation: cAMP production by CRE-luciferase reporter in stably transfected BHK cells
What all share (format): cell-based
In general terms: Cyclic AMP is a second messenger, typically raised through Gs and lowered through Gi signalling.

The target of one assay is T1, hGIP Receptor (Homo sapiens, UniProt P48546).
T1 construct: expressed in transfected cells; host or cells: baby hamster kidney (BHK) cells, stably transfected, with CRE-firefly luciferase reporter
T1 sequence (P48546 22-466): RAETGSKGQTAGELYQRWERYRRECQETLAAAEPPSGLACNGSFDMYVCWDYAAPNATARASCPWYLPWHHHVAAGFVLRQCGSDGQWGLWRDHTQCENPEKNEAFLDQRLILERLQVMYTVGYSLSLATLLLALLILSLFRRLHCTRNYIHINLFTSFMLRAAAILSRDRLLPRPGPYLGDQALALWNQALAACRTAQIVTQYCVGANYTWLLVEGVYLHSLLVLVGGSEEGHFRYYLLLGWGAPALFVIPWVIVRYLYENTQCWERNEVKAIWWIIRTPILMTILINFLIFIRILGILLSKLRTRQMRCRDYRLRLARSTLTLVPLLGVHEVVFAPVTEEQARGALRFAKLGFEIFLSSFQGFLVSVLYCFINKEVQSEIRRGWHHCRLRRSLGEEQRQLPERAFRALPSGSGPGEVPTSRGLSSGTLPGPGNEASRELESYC
The settings on record: compared to the native ligand for the receptor. The procedure, abridged:
(§1)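 BHK cells stably expressing one human receptor plus a CRE-firefly luciferase reporter were stimulated 3 h at 37 °C in phenol-red-free DMEM with 1% ovalbumin and 0.1% Pluronic F-68.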

A further assay concerns the target T2, hGLP-1 Receptor (Homo sapiens, UniProt P43220).
T2 construct: expressed in transfected cells; host or cells: baby hamster kidney (BHK) cells, stably transfected, with CRE-firefly luciferase reporter
To be noted: compared to the native ligand for the receptor. The procedure, abridged: as §1

Another assay has as its target T3, hGcg Receptor (Homo sapiens, UniProt P47871).
T3 construct: expressed in transfected cells; host or cells: baby hamster kidney (BHK) cells, stably transfected, with CRE-firefly luciferase reporter
To be noted: compared to the native ligand for the receptor. The method in brief:
as §1

For the next assay, the target named is T4, mGIP Receptor (Mus musculus, UniProt Q0P543).
T4 construct: expressed in transfected cells; host or cells: baby hamster kidney (BHK) cells, stably transfected, with CRE-firefly luciferase reporter
T4 sequence (Q0P543 19-460): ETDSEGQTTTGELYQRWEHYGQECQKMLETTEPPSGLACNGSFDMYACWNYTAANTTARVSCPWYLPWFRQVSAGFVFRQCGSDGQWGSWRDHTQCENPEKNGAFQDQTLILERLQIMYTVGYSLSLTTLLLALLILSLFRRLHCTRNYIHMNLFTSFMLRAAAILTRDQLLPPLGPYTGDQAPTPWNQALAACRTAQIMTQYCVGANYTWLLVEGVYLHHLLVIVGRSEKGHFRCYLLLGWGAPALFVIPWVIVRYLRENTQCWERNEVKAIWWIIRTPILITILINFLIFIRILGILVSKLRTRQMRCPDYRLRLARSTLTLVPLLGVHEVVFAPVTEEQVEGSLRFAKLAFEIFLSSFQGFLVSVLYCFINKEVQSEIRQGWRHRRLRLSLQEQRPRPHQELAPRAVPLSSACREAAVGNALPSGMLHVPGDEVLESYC
To be noted: relative to native ligand at mouse-derived receptor.

The target in the next assay is T5, mGcg Receptor (Mus musculus, UniProt Q61606).
T5 construct: expressed in transfected cells; host or cells: baby hamster kidney (BHK) cells, stably transfected, with CRE-firefly luciferase reporter
To be noted: relative to native ligand at mouse-derived receptor.

T2 sequence (P43220 24-463): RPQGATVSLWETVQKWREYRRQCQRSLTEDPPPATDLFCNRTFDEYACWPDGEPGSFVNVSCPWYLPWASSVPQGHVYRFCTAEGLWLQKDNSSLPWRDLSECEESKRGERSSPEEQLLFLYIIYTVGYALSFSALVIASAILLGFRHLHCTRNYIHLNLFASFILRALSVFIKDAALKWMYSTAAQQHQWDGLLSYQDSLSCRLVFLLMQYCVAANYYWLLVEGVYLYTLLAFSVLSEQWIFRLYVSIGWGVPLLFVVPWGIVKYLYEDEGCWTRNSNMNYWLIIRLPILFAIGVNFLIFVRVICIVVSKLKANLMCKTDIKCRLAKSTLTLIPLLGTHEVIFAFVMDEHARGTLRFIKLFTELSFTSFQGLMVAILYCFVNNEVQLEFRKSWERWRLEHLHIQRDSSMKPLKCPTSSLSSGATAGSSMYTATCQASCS
T3 sequence (P47871 26-477): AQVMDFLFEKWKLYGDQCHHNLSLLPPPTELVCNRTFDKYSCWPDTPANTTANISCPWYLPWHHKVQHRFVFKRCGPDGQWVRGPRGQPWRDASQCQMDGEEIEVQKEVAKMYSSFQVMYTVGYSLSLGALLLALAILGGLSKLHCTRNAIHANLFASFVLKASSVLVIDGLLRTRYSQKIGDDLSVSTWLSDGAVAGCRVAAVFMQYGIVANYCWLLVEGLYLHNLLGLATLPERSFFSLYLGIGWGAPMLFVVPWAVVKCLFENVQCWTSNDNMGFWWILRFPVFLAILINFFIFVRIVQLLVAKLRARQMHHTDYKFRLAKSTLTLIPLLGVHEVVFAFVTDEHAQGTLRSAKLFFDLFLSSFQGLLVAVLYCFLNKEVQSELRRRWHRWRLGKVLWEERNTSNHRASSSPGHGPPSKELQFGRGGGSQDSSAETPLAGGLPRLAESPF
T5 sequence (Q61606 27-485): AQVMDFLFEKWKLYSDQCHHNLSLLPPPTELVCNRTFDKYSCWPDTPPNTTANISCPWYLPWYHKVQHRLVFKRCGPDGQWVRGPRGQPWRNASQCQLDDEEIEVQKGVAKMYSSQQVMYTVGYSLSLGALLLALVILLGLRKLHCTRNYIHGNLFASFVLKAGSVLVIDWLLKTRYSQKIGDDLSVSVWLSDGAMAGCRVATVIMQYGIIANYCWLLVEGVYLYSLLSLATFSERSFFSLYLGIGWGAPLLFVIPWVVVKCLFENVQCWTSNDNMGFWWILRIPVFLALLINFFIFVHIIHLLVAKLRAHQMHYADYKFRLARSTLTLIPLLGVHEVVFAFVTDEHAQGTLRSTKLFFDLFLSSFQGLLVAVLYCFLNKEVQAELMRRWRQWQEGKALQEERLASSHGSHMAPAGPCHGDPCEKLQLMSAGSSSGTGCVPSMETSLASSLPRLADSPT
Procedure for mGIP Receptor: (§2) Cyclic AMP (cAMP) production was assessed as a proxy for receptor activation using stably transfected baby hamster kidney (BHK) cell lines expressing the DNA for one individual receptor (GLP-1R, GIPR, GcgR; human- or mouse-specific sequence) and the DNA for the firefly luciferase reporter gene linked to the cAMP response element (CRE). The cells were kept in continuous culture at 37 °C and 5% CO2 in Dulbecco's Modified Eagle Medium (DMEM) supplemented with 10% heat-inactivated fetal bovine serum (HI-FBS), 300 μg/mL hygromycin, and 500 μg/mL G418; for cell lines expressing GIPR, the G418 concentration was lowered to 400 μg/mL. Cells were plated in a 96-well poly-D-lysine-coated plate at 5,000 cells per well in growth media and incubated overnight at 37 °C with 5% CO2. After the overnight incubation, the media was removed, the plate was washed once in Dulbecco's phosphase-buffered saline (DPBS), and 50 μL of assay buffer (DMEM without phenol red, 10 mM HEPES, 1x Glutamax, 1% ovalbumin, 0.1% Pluronic F-68) was added to each well. […] The assay plate was covered to protect reagent from light, shaken at 250 rpm at room temperature for 30 min, and read in a microtiter plate reader. EC50 values were calculated using Prism software (GraphPad) with the nonlinear regression log(agonist) vs. response. A minimum of two replicates were measured for each sample.
Procedure for mGcg Receptor: as §2

On to `CC[C@H](C)[C@H](NC(=O)[C@H](CO)NC(=O)[C@H](Cc1ccc(O)cc1)NC(=O)[C@H](CC(=O)O)NC(=O)[C@H](CO)NC(=O)[C@@H](NC(=O)[C@H](Cc1ccccc1)NC(=O)[C@@H](NC(=O)CNC(=O)[C@H](Cc1c[nH]cn1)NC(=O)C(C)(C)NC(=O)[C@@H](N)Cc1c[nH]cn1)[C@@H](C)O)[C@@H](C)O)C(=O)N[C@@H](Cc1ccc(O)cc1)C(=O)N[C@@H](CC(C)C)C(=O)N[C@@H](CCC(=O)O)C(=O)N[C@@H](CCCCNC(=O)[C@@H](N)CCCCNC(=O)[C@@H](N)CCCCNC(=O)CC[C@H](NC(=O)CCCCCCCCCCCCCCCCCCC(=O)O)C(=O)O)C(=O)N[C@@H](CCCCN)C(=O)N[C@@H](Cc1ccc(O)cc1)C(=O)N[C@@H](C)C(=O)NC(C)(C)C(=O)N[C@@H](CCC(=O)O)C(=O)N[C@@H](Cc1ccccc1)C(=O)N[C@H](C(=O)N[C@@H](CCC(N)=O)C(=O)N[C@@H](Cc1c[nH]c2ccccc12)C(=O)N[C@@H](CC(C)C)C(=O)N[C@@H](CC(C)C)C(=O)N[C@@H](CCC(=O)O)C(=O)NCC(=O)NCC(=O)N1CCC[C@H]1C(=O)N[C@@H](CO)C(=O)N[C@@H](CO)C(=O)NCC(=O)N[C@@H](C)C(=O)N1CCC[C@H]1C(=O)N1CCC[C@H]1C(=O)N1CCC[C@H]1C(=O)N[C@@H](CO)C(N)=O)C(C)C` [Compound 16] (H-H[Aib]HGTFTSDYSIYLEK([εLys-εLys-γGlu-C20 diacid])KYA[Aib]EFVQWLLEGGPSSGAPPPS-NH2), for which, at hGIP Receptor, the “hGIP Receptor Relative Potency %” value was found to be 67%. Besides, at hGLP-1 Receptor, the “hGLP-1 Receptor Relative Potency %” value is 177%. In addition, on hGcg Receptor, the “hGcg Receptor Relative Potency %” value was 102%. Moreover, the “mGIP Receptor Relative Potency %” value on mGIP Receptor amounted to 265%. Moreover, the “mGcg Receptor Relative Potency %” value at mGcg Receptor turned out to be 78%.
